We go through one compound from patent publication US12410141B2, “Anti-cancer spirocyclic-guanidine compounds and uses thereof” (The Johns Hopkins University, priority 2020, dated 2025).

By IC50 is commonly meant the concentration that inhibits the measured activity by half.

The structures appear in SMILES notation.

What all share (assay type): cell-based
Assay [1] deals with high molecular weight polyubiquitinated proteins in OVCAR3 cells. Put plainly: Western blot for polyubiquitinated proteins, OVCAR3 cells. Conditions: RA475 0.5 μM and 1 μM. On the procedure:
Cell lysate (10-20 μg total protein) prepared in MPER (Pierce) from each sample was subjected to SDS-PAGE, transferred to PVDF membranes and analyzed by Western blot using antibodies specific for ubiquitin (P4D1, sc-8017, Santa Cruz), or after stripping antibody for actin (#66009, Protein Tech Group), at the dilutions recommended by the manufacturers, and for secondary antibodies either peroxidase-linked anti-mouse IgG or anti-rabbit IgG (GE Healthcare UK Ltd) were utilized at the recommended dilution. The blots were developed using HyGLO chemiluminescent detection reagent (Denville).
Proteasome inhibitors cause a rapid accumulation of polyUb proteins that is associated with unresolved UPR stress and the induction of apoptosis. Since RA475 is cytotoxic to ovarian cancer cells (Table 1), and induces such a rapid accumulation of polyUb proteins (FIG. 5), it was examined whether RA475 also triggered apoptosis. SKOV3 cells (FIG. 5A) were treated with Up284 (0.5 μM and 1 μM), 1 μM RA190, RA475 (0.5 μM and 1 μM) or vehicle alone (DMSO) and then cultured for 12 hr. OVCAR3 cells (FIG. 5B) were treated with Up284 (0.5 μM), Bortezomib (Bz, 0.25 μM), Ixazomib (Iz, 0.25 μM), RA475 (0.5 μM and 1 μM) or vehicle alone (DMSO). The attached cells were harvested and their lysates were subjected to Western blot analysis, first probed with antibody to ubiquitin and then to actin.
In general terms: A western blot detects proteins with antibodies after separation by electrophoresis.

Assay [2] deals with 4T1 cells stably expressing 4UbFL. In words: 4UbFL proteasome reporter, 4T1 cells. The conditions noted are these: 4 hr treatment, IVIS imager. On the procedure: Data are presented as IVIS image (FIG. 8A) and bioluminescence units (FIG. 8B).
4T1 and HCC1806 cells were transfected with 4UbFL plasmid using TransIT2020 transfection reagent for a period of 48 hrs and cells were selected using G418 antibiotic from single colonies. Selected cells were seeded in a 24-well plate (50,000/well) and incubated for 18 h at 37° C. in an incubator. Next, cells were treated with compounds for the period of 4 hr and Luciferin was added (50 uL each well, 7.8 mg/mL) and imaged through an IVIS200 instrument and plotted as a bioluminescent value or fold increase to DMSO control.

The next assay relates to PEA2. In words: MTT cytotoxicity assay, PEA2. Conditions: PEA2, ovarian, 72 hr, read-out: IC50, cell killing. As to the method:
(§1) All cell lines were obtained from the American Type Culture Collection (ATCC) and cultured in the specified medium supplemented with 10% fetal bovine serum, 100 IU/mL penicillin, and 100 μg/mL streptomycin at 37° C. in a humidified 5% CO2/95% air incubator. To assess drug cytotoxicity cells were seeded at 2,500 cells/well (10,000 cells/well for MM lines and primary cells) in 100 μL medium in 96-well plate. […]
(§2) It was examined whether the RPN13 inhibitor, RA475, was cytotoxic for cancer cell lines using the MTT assay.
For orientation: Formazan colour is commonly taken as a measure of viable cells.

The test system of another assay is PACS. In words: MTT cytotoxicity assay, PACS. The conditions noted are these: ovarian (mouse), 72 hr, read-out: IC50, cell killing. As to the method: as §1, §2

In the case of `Cl.Cl.N#Cc1ccc(/C=C2/C(=O)/C(=C/c3ccc(C#N)cc3)C23CCN(C(=N)N)CC3)cc1` [RA475], the “accumulation of high molecular weight polyubiquitinated proteins” value in assay [1] is “triggers the accumulation”. Further, in assay [2], the “bioluminescence of 4UbFL reporter” value was “dose-dependent increase”. In addition, the IC50 was determined as 356 nM in the assay with PEA2 and 581 nM in the assay on PACS.
